Test [1] addresses T1, human Nav1.5 channels stably expressed in HEK 293 cells (Homo sapiens, UniProt Q14524).
T1 construct: expressed in transfected cells
Kind of test: PatchXpress 7000 automated patch-clamp, sodium current. The format is cell-based. The following applies: selectivity over Nav1.5. The essentials: (§1)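 IC50 values came from Hill-equation fits of rundown-corrected inhibition. PatchXpress recordings at 22° C held cells 20 mV negative to V0.5 inact and applied 10 Hz trains of 30 ms steps to −20 mV (Nav1.7) or an 8000 ms prepulse 7 mV positive to V0.5 inact. […]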
For orientation: In patch-clamp work, channel activity is measured electrically.

The target of test [2] is T2, human Nav1.7 channels stably expressed in HEK 293 cells (Homo sapiens, UniProt Q15858).
T2 construct: expressed in transfected cells
The description is as above. It counts as cell-based. The following applies: 22° C., read-out: potency for the Nav 1.7 sodium ion channel (as measured by PatchXpress). The essentials: as §1

The source of these data is US9273040B2 (Merck Sharp & Dohme Corp., priority 2011, dated 2016).

T2 sequence (Q15858 whole entry): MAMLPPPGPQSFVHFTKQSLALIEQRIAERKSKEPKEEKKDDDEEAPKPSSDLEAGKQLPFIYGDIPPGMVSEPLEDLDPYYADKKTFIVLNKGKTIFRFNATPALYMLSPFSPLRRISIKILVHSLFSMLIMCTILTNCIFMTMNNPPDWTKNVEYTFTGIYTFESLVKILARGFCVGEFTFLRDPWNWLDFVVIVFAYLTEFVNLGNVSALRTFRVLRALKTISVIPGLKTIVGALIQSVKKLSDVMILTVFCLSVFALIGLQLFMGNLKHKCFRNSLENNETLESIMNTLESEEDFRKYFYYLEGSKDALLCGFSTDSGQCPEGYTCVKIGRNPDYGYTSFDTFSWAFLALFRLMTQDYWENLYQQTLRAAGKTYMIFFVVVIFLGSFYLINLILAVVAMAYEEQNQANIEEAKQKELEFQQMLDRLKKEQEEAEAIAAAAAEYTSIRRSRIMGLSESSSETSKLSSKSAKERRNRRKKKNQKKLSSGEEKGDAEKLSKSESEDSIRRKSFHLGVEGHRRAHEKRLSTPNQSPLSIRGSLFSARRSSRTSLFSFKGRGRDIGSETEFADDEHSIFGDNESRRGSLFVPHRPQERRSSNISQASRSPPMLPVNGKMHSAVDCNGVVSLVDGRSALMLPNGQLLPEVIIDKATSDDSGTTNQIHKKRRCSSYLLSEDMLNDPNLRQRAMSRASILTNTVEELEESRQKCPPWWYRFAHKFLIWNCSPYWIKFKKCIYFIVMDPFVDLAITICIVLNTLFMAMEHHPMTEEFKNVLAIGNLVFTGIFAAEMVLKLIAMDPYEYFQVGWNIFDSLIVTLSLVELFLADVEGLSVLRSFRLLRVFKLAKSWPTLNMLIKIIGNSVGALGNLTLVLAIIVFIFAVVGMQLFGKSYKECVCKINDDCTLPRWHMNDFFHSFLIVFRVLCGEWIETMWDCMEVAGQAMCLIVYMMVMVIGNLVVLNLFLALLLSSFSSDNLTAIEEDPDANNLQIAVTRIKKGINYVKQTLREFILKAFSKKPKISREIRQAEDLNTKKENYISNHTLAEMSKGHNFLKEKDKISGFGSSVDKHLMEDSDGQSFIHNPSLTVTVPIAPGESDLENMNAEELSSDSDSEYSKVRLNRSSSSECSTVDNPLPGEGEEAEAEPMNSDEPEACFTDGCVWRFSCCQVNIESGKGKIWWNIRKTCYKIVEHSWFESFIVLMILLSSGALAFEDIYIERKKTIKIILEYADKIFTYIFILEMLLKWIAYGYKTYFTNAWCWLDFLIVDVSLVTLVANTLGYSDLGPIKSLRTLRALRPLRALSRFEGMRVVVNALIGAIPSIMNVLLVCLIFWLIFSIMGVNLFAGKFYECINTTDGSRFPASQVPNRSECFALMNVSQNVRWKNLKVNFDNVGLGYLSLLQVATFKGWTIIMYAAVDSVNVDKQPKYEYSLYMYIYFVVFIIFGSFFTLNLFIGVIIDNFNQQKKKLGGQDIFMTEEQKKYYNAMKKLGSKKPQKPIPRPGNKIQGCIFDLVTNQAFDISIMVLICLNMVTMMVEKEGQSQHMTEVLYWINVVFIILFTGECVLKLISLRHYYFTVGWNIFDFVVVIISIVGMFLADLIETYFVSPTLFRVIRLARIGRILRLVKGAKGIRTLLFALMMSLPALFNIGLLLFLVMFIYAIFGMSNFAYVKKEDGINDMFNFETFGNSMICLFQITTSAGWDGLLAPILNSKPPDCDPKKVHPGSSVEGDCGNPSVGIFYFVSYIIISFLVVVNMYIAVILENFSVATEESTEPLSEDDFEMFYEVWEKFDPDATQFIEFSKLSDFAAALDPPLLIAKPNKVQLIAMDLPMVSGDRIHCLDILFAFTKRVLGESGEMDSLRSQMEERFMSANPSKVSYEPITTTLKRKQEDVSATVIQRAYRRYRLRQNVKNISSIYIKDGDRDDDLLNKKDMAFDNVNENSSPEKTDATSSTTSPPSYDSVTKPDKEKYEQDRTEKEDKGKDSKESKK
T1 sequence (Q14524 whole entry): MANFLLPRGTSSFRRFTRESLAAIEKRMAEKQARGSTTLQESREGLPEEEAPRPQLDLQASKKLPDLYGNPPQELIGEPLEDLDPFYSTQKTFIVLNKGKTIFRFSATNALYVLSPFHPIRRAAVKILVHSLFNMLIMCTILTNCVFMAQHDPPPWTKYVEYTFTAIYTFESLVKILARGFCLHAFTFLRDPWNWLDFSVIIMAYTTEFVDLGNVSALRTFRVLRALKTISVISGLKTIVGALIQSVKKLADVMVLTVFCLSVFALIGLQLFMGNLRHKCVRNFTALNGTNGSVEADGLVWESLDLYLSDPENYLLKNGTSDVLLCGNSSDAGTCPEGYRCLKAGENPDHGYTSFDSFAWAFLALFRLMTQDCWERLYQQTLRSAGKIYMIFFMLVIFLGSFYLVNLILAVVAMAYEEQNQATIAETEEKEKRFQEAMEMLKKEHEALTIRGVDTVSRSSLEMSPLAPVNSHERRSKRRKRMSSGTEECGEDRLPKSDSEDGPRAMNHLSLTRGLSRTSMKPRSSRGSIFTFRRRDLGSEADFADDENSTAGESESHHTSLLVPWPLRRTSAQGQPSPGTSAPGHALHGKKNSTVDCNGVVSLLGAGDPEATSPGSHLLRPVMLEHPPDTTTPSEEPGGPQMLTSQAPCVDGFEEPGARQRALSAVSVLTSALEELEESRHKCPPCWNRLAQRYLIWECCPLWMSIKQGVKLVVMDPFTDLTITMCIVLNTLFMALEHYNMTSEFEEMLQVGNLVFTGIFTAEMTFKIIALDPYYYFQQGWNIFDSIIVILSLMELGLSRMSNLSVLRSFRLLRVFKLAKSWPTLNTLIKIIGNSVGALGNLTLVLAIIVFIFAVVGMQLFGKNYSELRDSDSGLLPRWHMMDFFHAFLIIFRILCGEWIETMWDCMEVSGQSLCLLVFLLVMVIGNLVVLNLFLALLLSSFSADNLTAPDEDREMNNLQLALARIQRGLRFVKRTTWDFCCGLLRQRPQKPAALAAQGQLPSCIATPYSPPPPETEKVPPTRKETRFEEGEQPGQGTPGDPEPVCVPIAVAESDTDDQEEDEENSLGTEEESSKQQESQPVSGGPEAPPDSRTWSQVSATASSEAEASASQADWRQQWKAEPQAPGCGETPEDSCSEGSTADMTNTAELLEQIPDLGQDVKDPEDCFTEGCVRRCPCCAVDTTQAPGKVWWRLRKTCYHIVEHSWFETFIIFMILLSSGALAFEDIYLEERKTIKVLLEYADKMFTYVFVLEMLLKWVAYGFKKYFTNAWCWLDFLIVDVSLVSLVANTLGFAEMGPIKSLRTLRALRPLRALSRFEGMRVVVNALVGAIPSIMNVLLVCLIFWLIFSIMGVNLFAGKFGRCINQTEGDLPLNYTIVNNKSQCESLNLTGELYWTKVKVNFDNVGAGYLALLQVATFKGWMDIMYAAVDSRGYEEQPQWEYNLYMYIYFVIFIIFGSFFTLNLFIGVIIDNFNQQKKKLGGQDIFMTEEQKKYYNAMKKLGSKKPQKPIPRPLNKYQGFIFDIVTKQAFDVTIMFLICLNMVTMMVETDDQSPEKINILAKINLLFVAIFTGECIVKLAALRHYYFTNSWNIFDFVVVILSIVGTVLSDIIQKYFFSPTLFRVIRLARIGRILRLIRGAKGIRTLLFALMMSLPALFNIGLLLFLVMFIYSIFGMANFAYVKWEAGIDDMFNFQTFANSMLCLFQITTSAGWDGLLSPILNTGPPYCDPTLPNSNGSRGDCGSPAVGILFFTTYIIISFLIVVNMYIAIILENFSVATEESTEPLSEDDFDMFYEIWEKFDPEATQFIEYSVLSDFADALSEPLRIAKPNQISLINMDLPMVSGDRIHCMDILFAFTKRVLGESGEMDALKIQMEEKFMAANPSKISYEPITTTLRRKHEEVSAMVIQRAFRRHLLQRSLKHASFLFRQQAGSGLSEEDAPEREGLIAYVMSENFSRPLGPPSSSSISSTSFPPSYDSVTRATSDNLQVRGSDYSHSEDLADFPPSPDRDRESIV

Turning to `O=c1oc2cc(S(=O)(=O)Nc3nccs3)c(F)cc2n1Cc1cccc(Br)c1` [Compound 43-6, 3-(3-bromobenzyl)-5-fluoro-2-oxo-N-1,3-thiazol-2-yl-2,3-dihydro-1,3-benzoxazole-6-sulfonamide], the “ratio of Nav 1.5:Nav 1.7 potency, determined by PatchXpress measurement” value (shortened to “ratio of Nav 1.5:Nav 1.7 potency”) in test [1] was 80. The IC50 in test [2] turned out to be 0.162 µM.
The corresponding values for `Cc1ccc2c(c1)C(n1c(=O)oc3cc(S(=O)(=O)Nc4nccs4)c(F)cc31)CCC2` (centres unmarked) [Compound 43-7, 5-fluoro-3-(7-methyl-1,2,3,4-tetrahydronaphthalen-1-yl)-2-oxo-N-1,3-thiazol-2-yl-2,3-dihydro-1,3-benzoxazole-6-sulfonamide] are 137 and 0.111 µM.
Regarding `O=c1oc2cc(S(=O)(=O)Nc3nccs3)c(F)cc2n1C1CCCc2c(F)cccc21` (centres unmarked) [Compound 43-8, 5-fluoro-3-(5-fluoro-1,2,3,4-tetrahydronaphthalen-1-yl)-2-oxo-N-1,3-thiazol-2-yl-2,3-dihydro-1,3-benzoxazole-6-sulfonamide], the “ratio of Nav 1.5:Nav 1.7 potency” value in test [1] is on record as 75. Moreover, the IC50 in test [2] was 0.071 µM.
For the compound `O=c1oc2cc(S(=O)(=O)Nc3nccs3)c(F)cc2n1C1CCCc2c(F)cc(F)cc21` (centres unmarked) [Compound 43-9, 3-(5,7-difluoro-1,2,3,4-tetrahydronaphthalen-1-yl)-5-fluoro-2-oxo-N-1,3-thiazol-2-yl-2,3-dihydro-1,3-benzoxazole-6-sulfonamide], the “ratio of Nav 1.5:Nav 1.7 potency” value in test [1] is 95. Further, the IC50 in test [2] was determined as 0.067 µM.
Consider `O=c1oc2cc(S(=O)(=O)Nc3nccs3)c(F)cc2n1C1CC2(CCC2)Oc2ccc(Br)cc21` (centres unmarked) [Compound 43-10, 3-(6-bromo-3,4-dihydrospiro[chromene-2,1′-cyclobutan]-4-yl)-5-fluoro-2-oxo-N-1,3-thiazol-2-yl-2,3-dihydro-1,3-benzoxazole-6-sulfonamide], for which the “ratio of Nav 1.5:Nav 1.7 potency” value in test [1] is 29. Moreover, in test [2], the IC50 turned out to be 0.058 µM.
On the same counts, the results for `O=c1oc2cc(S(=O)(=O)Nc3nccs3)c(F)cc2n1C1CC2(CCC2)Oc2ccc(F)cc21` (centres unmarked) [Compound 43-11, 5-fluoro-3-(6-fluoro-3,4-dihydrospiro[chromene-2,1′-cyclobutan]-4-yl)-2-oxo-N-1,3-thiazol-2-yl-2,3-dihydro-1,3-benzoxazole-6-sulfonamide] are 196 and 0.041 µM.
On the same counts, the results for `O=c1oc2cc(S(=O)(=O)Nc3nccs3)c(F)cc2n1C1CCCc2ccc(F)cc21` (centres unmarked) [Compound 43-12, 5-fluoro-3-(7-fluoro-1,2,3,4-tetrahydronaphthalen-1-yl)-2-oxo-N-1,3-thiazol-2-yl-2,3-dihydro-1,3-benzoxazole-6-sulfonamide] are 145 and 0.03 µM.
Take `Nc1cccc2c1CCCC2n1c(=O)oc2cc(S(=O)(=O)Nc3nccs3)c(F)cc21` (centres unmarked) [Compound 43-13, 3-(5-amino-1,2,3,4-tetrahydronaphthalen-1-yl)-5-fluoro-2-oxo-N-1,3-thiazol-2-yl-2,3-dihydro-1,3-benzoxazole-6-sulfonamide]: in test [1], the “ratio of Nav 1.5:Nav 1.7 potency” value worked out at 74. Besides, the IC50 in test [2] turned out to be 0.405 µM.
On the same counts, the results for `Nc1ccc2c(c1)C(n1c(=O)oc3cc(S(=O)(=O)Nc4nccs4)c(F)cc31)CCC2` (centres unmarked) [Compound 43-14, 3-(7-amino-1,2,3,4-tetrahydronaphthalen-1-yl)-5-fluoro-2-oxo-N-1,3-thiazol-2-yl-2,3-dihydro-1,3-benzoxazole-6-sulfonamide] are 724 and 0.14 µM.
For the compound `C[C@H](c1cccc2c1CNCC2)n1c(=O)oc2cc(S(=O)(=O)Nc3nccs3)c(F)cc21` [Compound 43-15, 5-fluoro-2-oxo-3-[(1R)-1-(1,2,3,4-tetrahydroisoquinolin-8-yl)ethyl]-N-1,3-thiazol-2-yl-2,3-dihydro-1,3-benzoxazole-6-sulfonamide], the “ratio of Nav 1.5:Nav 1.7 potency” value in test [1] is 147. The IC50 in test [2] amounted to 0.08 µM.
